Results taken from US12227520B2 (priority 2019, dated 2025).
pEC50: −log10 of the molar value. Read-outs that look alike come from different tables or passages of the source.

Tests used:
[1] = system: uninfected MT-4 cells; assay: Cytotoxicity assay in MT-4 cells; type: cell-based, human; conditions: uninfected MT-4 cells, 5 days incubation
Summary of the method: (§1)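 For cytotoxicity, uninfected MT-4 cells were incubated with compounds 5 days at 37 °C, with 10 μM puromycin marking base cytotoxicity. Parallel plates used HIV-1 IIIB-infected (1:250 stock dilution) or mock cells with 5 μM AZT and no-drug controls. Read-out: CellTiter-Glo chemiluminescence.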

[2] = system: HIV-1 (IIIB); assay: Antiviral assay in MT-4 cells (HIV MT-4 antiviral assay); type: cell-based; conditions: HIV-1 (IIIB) in MT-4 cells, 5 days incubation
Summary of the method: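 Read-out is CellTiter-Glo chemiluminescence after 5-day culture at 37° C, giving protection of MT-4 cells from HIV-1 IIIB cytopathicity. Compounds tested in 1:3 dilution series in complete RPMI; controls were no drug, mock infection and 5 μM AZT.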

[3] = system: pLai RLuc reporter virus; assay: microbe, parasite or virus in culture; type: cell-based, HIV
Summary of the method: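 Read-out is Renilla luciferase after 72 h at 37 °C in MT-4 cells infected 2 h beforehand with pLai RLuc reporter virus; compounds diluted 1:3.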

[4] = Cytotoxicity assay in MT-4 cells; type: cell-based, human; conditions: human, uninfected MT-4 cells, 5 days incubation; read-out: CC50
Summary of the method: as §1

[5] = read-out: Antiviral Serum Shift RLuc 50% HS, HS/CCM (RPMI media, 10% FBS, 50% HS, 1% P/S), 72-h incubation
[6] = read-out: Antiviral Serum Shift RLuc CCM, CCM (RPMI media, 10% FBS, 1% P/S), 72-h incubation
[7] = Human immunodeficiency virus 1, 72 h, read-out: Antiviral Serum Shift RLuc 50% HS, HS/CCM (RPMI media, 10% FBS, 50% HS, 1% P/S), 72-h incubation
[8] = Human immunodeficiency virus 1, 72 h, read-out: Antiviral Serum Shift RLuc CCM, CCM (RPMI media, 10% FBS, 1% P/S), 72-h incubation
[9] = Human immunodeficiency virus 1, IIIB, MT4, 120 h, read-out: EC50

Compound	CC50 [1]	pEC50 ([2]; read-out: EC50)	pEC50 [3, 7]	pEC50 [3, 8]	CC50 at 5 days [4]	pEC50 [2, 9]	other results
CC[C@@]12CCCCN(C1)C(=O)c1c(O)c(=O)c(C(=O)NCc3ccc(F)cc3F)cn12 [Example 134-2, (7R)—N-(2,4-difluorobenzyl)-7-ethyl-12-hydroxy-1,11-dioxo-1,4,5,6,7,11-hexahydro-3H-27-methanopyrido[1,2-a][1,4]diazonine-10-carboxamide]	10600 nM	8.24					
O=C(NCc1c(F)cc(F)cc1F)c1cn2c(c(O)c1=O)C(=O)N1CCCC(CF)C2C1 (single isomer, unassigned) [Example 194-4, 6-(fluoromethyl)-12-hydroxy-1,11-dioxo-N-(2,4,6-trifluorobenzyl)-1,4,5,6,7,11-hexahydro-3H-2,7-methanopyrido[1,2-a][1,4]diazonine-10-carboxamide]	11300 nM	8.76					pEC50 [3, 5]: 8.46; pEC50 [3, 6]: 9.40
O=C(NCc1c(F)cc(F)cc1F)c1cn2c(c(O)c1=O)C(=O)N1CCCC(CF)C2C1 (single isomer, unassigned) [Example 194-3, 6-(fluoromethyl)-12-hydroxy-1,11-dioxo-N-(2,4,6-trifluorobenzyl)-1,4,5,6,7,11-hexahydro-3H-2,7-methanopyrido[1,2-a][1,4]diazonine-10-carboxamide]	11500 nM	8.89					pEC50 [3, 5]: 6.86; pEC50 [3, 6]: 9.26
O=C(NCc1ccc(F)cc1F)c1cn2c(c(O)c1=O)C(=O)N1C[C@@H]2CCC[C@@H]1CF [Example 181, (3R,7S)—N-(2,4-difluorobenzyl)-3-(fluoromethyl)-12-hydroxy-1,11-dioxo-1,4,5,6,7,11-hexahydro-3H-2,7-methanopyrido[1,2-a][1,4]diazonine-10-carboxamide]	9710 nM	8.96					pEC50 [3, 5]: 8.12; pEC50 [3, 6]: 9.41
O=C(NCc1ccc(F)cc1F)c1cn2c(c(O)c1=O)C(=O)N1CC2CCc2cc(F)ccc21 (single isomer, unassigned) [Example 55-2]	7330 nM		8.88	9.51			pEC50 [2]: 8.75
O=C(NCc1ccc(F)cc1F)c1cn2c(c(O)c1=O)C(=O)N1C[C@H](F)CC[C@H]2C1 (single isomer, unassigned) [Example 53-4]	> 44400 nM	8.33					pEC50 [3, 5]: 7.74; pEC50 [3, 6]: 9.16
O=C(NCc1c(F)cc(F)cc1F)c1cn2c(c(O)c1=O)C(=O)N1CC2CCc2ccccc21 (single isomer, unassigned) [Example 38-2]	12800 nM	9.03					
O=C(NCc1ccc(F)cc1F)c1cn2c(c(O)c1=O)C(=O)N1C[C@H](F)CC[C@H]2C1 (single isomer, unassigned) [Example 53-1]	13200 nM	8.67		9.27			pEC50 [3, 5]: 8.21
CC[C@]12CCCCN(C1)C(=O)c1c(O)c(=O)c(C(=O)NCc3ccc(F)cc3F)cn12 [Example 134-1, (7S)—N-(2,4-difluorobenzyl)-7-ethyl-12-hydroxy-1,11-dioxo-1,4,5,6,7,11-hexahydro-3H-27-methanopyrido[1,2-a][1,4]diazonine-10-carboxamide]	16200 nM	8.48					
(7R,13R)—N-(2,4-difluorobenzyl)-12-hydroxy-13-methyl-1,11-dioxo-1,4,5,6,7,11-hexahydro-3H-2,7-methanopyrido[1,2-a][1,4]diazonine-10-carboxamide [Example 7]	25400 nM	7.70					
(3S,7S)-5-fluoro-12-hydroxy-3-methyl-1,11-dioxo-N-(2,4,6-trifluorobenzyl)-1,6,7,11-tetrahydro-3H-2,7-methanopyrido[1,2-a][1,4]diazonine-10-carboxamide [Example 118-2]	11600 nM	8.93					pEC50 ([3]; CCM (RPMI media, 10% FBS, 1% P/S), 72-h incubation, read-out: Antiviral Serum Shift RLuc CCM): 9.60; pEC50 ([3]; HS/CCM (RPMI media, 10% FBS, 50% HS, 1% P/S), 72-h incubation, read-out: Antiviral Serum Shift RLuc 50% HS): 9.30
O=C(NCc1c(F)cc(F)cc1F)c1cn2c(c(O)c1=O)C(=O)N1CCCC(CF)C2C1 (single isomer, unassigned) [Example 194-2, 6-(fluoromethyl)-12-hydroxy-1,11-dioxo-N-(2,4,6-trifluorobenzyl)-1,4,5,6,7,11-hexahydro-3H-2,7-methanopyrido[1,2-a][1,4]diazonine-10-carboxamide]	10500 nM	8.82					pEC50 [3, 5]: 8.52; pEC50 [3, 6]: 9.42
O=C(NCc1c(F)cc(F)cc1F)c1cn2c(c(O)c1=O)C(=O)N1CCC=C[C@H]2C1 [Example 109-2, (7S)-12-hydroxy-1,11-dioxo-N-(2,4,6-trifluorobenzyl)-1,4,7,11-tetrahydro-3H-2,7-methanopyrido[1,2-a][1,4]diazonine-10-carboxamide]			8.36	9.63	11800 nM	8.83	
O=C(NCc1cccc(Cl)c1F)c1cn2c(c(O)c1=O)C(=O)N1Cc3cc(F)c(F)cc3C[C@@H]2C1 [Example 143-1, (6R)—N-(3-chloro-2-fluorobenzyl)-9,10-difluoro-1-hydroxy-2,14-dioxo-2,7,12,14-tetrahydro-6H-6,13-methanobenzo[f]pyrido[1,2-a][1,4]diazonine-3-carboxamide]			6.88	8.32	> 50000 nM	7.64	
C[C@H]1CCC[C@@H]2CN1C(=O)c1c(O)c(=O)c(C(=O)NCc3ccc(F)cc3F)cn12 [Example 52-2, (3S, 7R)—N-(2,4-difluorobenzyl)-12-hydroxy-3-methyl-1,11-dioxo-1,4,5,6,7,11-hexahydro-3H-2,7-methanopyrido[1,2-a][1,4]diazonine-10-carboxamide]			8.66	9.42	5840 nM	8.77	
O=C(NCc1ccc(F)cc1F)c1cn2c(c(O)c1=O)C(=O)N1CCCC[C@@]2(CF)C1 [Example 162-1, (7S)—N-(2,4-difluorobenzyl)-7-(fluoromethyl)-12-hydroxy-1,11-dioxo-1,4,5,6,7,11-hexahydro-3H-2,7-methanopyrido[1,2-a][1,4]diazonine-10-carboxamide]			7.92	10.17	16200 nM	8.94	
O=C(NCc1c(F)cc(F)cc1F)c1cn2c(c(O)c1=O)C(=O)N1CC[C@@H](F)C[C@H]2C1 [Example 73-1, (5R,7S)-5-fluoro-12-hydroxy-1,11-dioxo-N-(2,4,6-trifluorobenzyl)-1,4,5,6,7,11-hexahydro-3H-2,7-methanopyrido[1,2-a][1,4]diazonine-10-carboxamide]			9.05	9.15	> 50000 nM	8.28	
O=C(NCc1c(F)cc(F)cc1F)c1cn2c(c(O)c1=O)C(=O)N1CCC=C(F)[C@@H]2C1 (single isomer, unassigned) [Example 75-1]			6.53	9.23	15100 nM	8.43	
O=C(NCc1c(F)cc(F)cc1F)c1cn2c(c(O)c1=O)C(=O)N1CC[C@@H](O)CC[C@H]2C1 [Example 83-1, (5S,8S)-5,13-dihydroxy-1,12-dioxo-N-(2,4,6-trifluorobenzyl)-1,3,4,5,6,7,8,12-octahydro-2,8-methanopyrido[1,2-a][1,4]diazecine-11-carboxamide]			8.15	8.09	> 50000 nM	7.41	
O=C(NCc1ccc(F)c(Cl)c1F)c1cn2c(c(O)c1=O)C(=O)N1CC2CCc2cccc(F)c21 (stereo not drawn) [Example 67, N-(3-chloro-2,4-difluorobenzyl)-4-fluoro-7-hydroxy-6,8-dioxo-6,8,13,14-tetrahydro-12H-5,12-methanobenzo[e]pyrido[1,2-a][1,4]diazonine-9-carboxamide]			8.83	9.36	23900 nM	8.61	
CC1=CC[C@H]2CN(C(=O)c3c(O)c(=O)c(C(=O)NCc4c(F)cc(F)cc4F)cn32)[C@H]1C [Example 144-2, (3S,7S)-12-hydroxy-3,4-dimethyl-1,11-dioxo-N-(2,4,6-trifluorobenzyl)-1,6,7,11-tetrahydro-3H-2,7-methanopyrido[1,2-a][1,4]diazonine-10-carboxamide]			8.35	9.33	13900 nM	8.70	
O=C(NCc1ccc(F)cc1F)c1cn2c(c(O)c1=O)C(=O)N1CC2CCc2cc(F)c(F)cc21 (single isomer, unassigned) [Example 50-2]	32300 nM						pEC50 [2]: 7.49
